The record followed here is patent US8022099B2, “N-benzyl pyrrolidine derivatives” (Hoffmann-La Roche Inc., priority 2008, dated 2011).

Structures are written as SMILES.

The target in this test is T1, human NK3 receptor (Homo sapiens, UniProt P29371).
T1 construct: expressed in transfected cells; host or cells: HEK293 cells (transient expression), membrane preparation
T1 sequence (P29371 1-465): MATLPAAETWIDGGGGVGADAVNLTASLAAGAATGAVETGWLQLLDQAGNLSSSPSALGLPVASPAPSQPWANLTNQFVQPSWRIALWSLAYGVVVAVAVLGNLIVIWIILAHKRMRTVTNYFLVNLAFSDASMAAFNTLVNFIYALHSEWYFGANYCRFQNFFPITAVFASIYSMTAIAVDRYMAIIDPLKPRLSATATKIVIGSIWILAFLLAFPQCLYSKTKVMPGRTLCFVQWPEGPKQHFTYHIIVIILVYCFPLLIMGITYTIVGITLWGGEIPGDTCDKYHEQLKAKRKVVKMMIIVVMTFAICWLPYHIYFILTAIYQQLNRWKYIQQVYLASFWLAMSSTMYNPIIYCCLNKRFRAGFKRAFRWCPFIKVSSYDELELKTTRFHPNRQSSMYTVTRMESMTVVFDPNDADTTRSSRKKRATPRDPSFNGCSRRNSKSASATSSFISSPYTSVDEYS
Description: [3H]SR142801 competition binding assay. The conditions noted are these: hNK3 receptor binding, [3H]SR142801, membranes from HEK293 cells transiently expressing recombinant human NK3 receptor. The protocol: [^3H]SR142801 Competition Binding Assay
hNK3 receptor binding experiment were performed using [^3H]SR142801 (Catalog No. TRK1035, specific activity: 74.0 Ci/mmol, Amersham, GE Healthcare UK limited, Buckinghamshire, UK) and membrane isolated from HEK293 cells transiently expressing recombinant human NK3 receptor. After thawing, the membrane homogenates were centrifuged at 48,000×g for 10 min at 4° C., the pellets were resuspended in the 50 mM Tris-HCl, 4 mM MnCl2, 1 μM phosphoramidon, 0.1% BSA binding buffer at pH 7.4 to a final assay concentration of 5 μg protein/well. For inhibition experiments, membranes were incubated with [^3H]SR142801 at a concentration equal to KD value of radioligand and 10 concentrations of the inhibitory compound (0.0003-10 μM) (in a total reaction volume of 500 μl) for 75 min at room temperature (RT). At the end of the incubation, membranes were filtered onto unitfilter (96-well white microplate with bonded GF/C filter preincubated 1 h in 0.3% PEI+0.3% BSA, Packard BioScience, Meriden, Conn.) with a Filtermate 196 harvester (Packard BioScience) and washed 4 times with ice-cold 50 mM Tris-HCl, pH 7.4 buffer. Nonspecific binding was measured in the presence of 10 μM SB222200 for both radioligands. The radioactivity on the filter was counted (5 min) on a Packard Top-count microplate scintillation counter with quenching correction after addition of 45 μl of microscint 40 (Canberra Packard S. A., Zürich, Switzerland) and shaking for 1 h. Inhibition curves were fitted according to the Hill equation: y=100/(1+(x/IC50)^nH), where nH=slope factor using Excel-fit 4 software (Microsoft). IC50 values were derived from the inhibition curve and the affinity constant (Ki) values were calculated using the Cheng-Prussoff equation Ki=IC50/(1+[L]/KD) where [L] is the concentration of radioligand and KD is its dissociation constant at the receptor, derived from the saturation isotherm. All experiments were performed in duplicate and the mean±standard error (SEM) of the individual Ki values was calculated.
Consider `CN(C)CCN1CCN(C(=O)N2C[C@H](c3ccc(Cl)c(Cl)c3)[C@@H](N(C)Cc3ccc(C(F)(F)F)c(F)c3)C2)CC1` (racemic) [Example 75, {(3SR,4RS)-3-(3,4-Dichloro-phenyl)-4-[(3-fluoro-4-trifluoromethyl-benzyl)-methyl-amino]-pyrrolidin-1-yl}-[4-(2-dimethylamino-ethyl)-piperazin-1-yl]-methanone], for which the Ki (in general, a measure of affinity in units of concentration, obtained from inhibition or displacement) turned out to be 4.6 nM.
Take `CN(Cc1ccc(C(F)(F)F)c(F)c1)[C@H]1CN(C(=O)N2CCN(S(=O)(=O)N(C)C)CC2)C[C@@H]1c1ccc(Cl)c(Cl)c1` (racemic) [Example 76, 4-{(3SR,4RS)-3-(3,4-Dichloro-phenyl)-4-[(3-fluoro-4-trifluoromethyl-benzyl)-methyl-amino]-pyrrolidine-1-carbonyl}-piperazine-1-sulfonic acid dimethylamide]: the Ki worked out at 1.8 nM.
With `COc1cccc(N2CCN(C(=O)N3C[C@H](c4ccc(Cl)c(Cl)c4)[C@@H](N(C)Cc4ccc(C(F)(F)F)c(F)c4)C3)CC2)n1` (racemic) [Example 77, {(3SR,4RS)-3-(3,4-Dichloro-phenyl)-4-[(3-fluoro-4-trifluoromethyl-benzyl)-methyl-amino]-pyrrolidin-1-yl}-[4-(6-methoxy-pyridin-2-yl)-piperazin-1-yl]-methanone] the figure was 26.8 nM; with `CCN(CC)C(=O)N1CCN(C(=O)N2C[C@H](c3ccc(Cl)c(Cl)c3)[C@@H](N(C)Cc3ccc(C(F)(F)F)c(F)c3)C2)CC1` (racemic) [Example 78, 4-{(3SR,4RS)-3-(3,4-Dichloro-phenyl)-4-[(3-fluoro-4-trifluoromethyl-benzyl)-methyl-amino]-pyrrolidine-1-carbonyl}-piperazine-1-carboxylic acid diethylamide], 4.8 nM; with `CN(Cc1ccc(C(F)(F)F)c(F)c1)[C@H]1CN(C(=O)N2CCN(CCC#N)CC2)C[C@@H]1c1ccc(Cl)c(Cl)c1` (racemic) [Example 79, 3-(4-{(3SR,4RS)-3-(3,4-Dichloro-phenyl)-4-[(3-fluoro-4-trifluoromethyl-benzyl)-methyl-amino]-pyrrolidine-1-carbonyl}-piperazin-1-yl)-propionitrile], 1.9 nM.
For the molecule `CN(Cc1ccc(C(F)(F)F)c(F)c1)[C@H]1CN(C(=O)N2CCC(O)(c3ccncc3)CC2)C[C@@H]1c1ccc(Cl)c(Cl)c1` (racemic) [Example 80, {(3SR,4RS)-3-(3,4-Dichloro-phenyl)-4-[(3-fluoro-4-trifluoromethyl-benzyl)-methyl-amino]-pyrrolidin-1-yl}-(4-hydroxy-3,4,5,6-tetrahydro-2H-[4,4′]bipyridinyl-1-yl)-methanone], the inhibitory constant (Ki) was 20.8 nM.
With `CN(Cc1ccc(C(F)(F)F)c(F)c1)[C@H]1CN(C(=O)N2CCN(S(C)(=O)=O)CC2)C[C@@H]1c1ccc(Cl)c(F)c1` (racemic) [Example 81, {(3SR,4RS)-3-(4-Chloro-3-fluoro-phenyl)-4-[(3-fluoro-4-trifluoromethyl-benzyl)-methyl-amino]-pyrrolidin-1-yl}-(4-methanesulfonyl-piperazin-1-yl)-methanone] the figure was 14.6 nM.
To `CN(Cc1ccc(C(F)(F)F)c(F)c1)[C@H]1CN(C(=O)N2CCCN(S(C)(=O)=O)CC2)C[C@@H]1c1ccc(Cl)c(F)c1` (racemic) [Example 82, {(3SR,4RS)-3-(4-Chloro-3-fluoro-phenyl)-4-[(3-fluoro-4-trifluoromethyl-benzyl)-methyl-amino]-pyrrolidin-1-yl}-(4-methanesulfonyl-[1,4]diazepan-1-yl)-methanone] belongs 39.7 nM; to `CN(Cc1ccc(C(F)(F)F)cc1)[C@H]1CN(C(=O)N2CCN(S(C)(=O)=O)CC2)C[C@@H]1c1ccc(Cl)c(Cl)c1` (racemic) [Example 83, {(3SR,4RS)-3-(3,4-Dichloro-phenyl)-4-[methyl-(4-trifluoromethyl-benzyl)-amino]-pyrrolidin-1-yl}-(4-methanesulfonyl-piperazin-1-yl)-methanone], 6 nM.
Turning to `CN(Cc1ccc(C(F)(F)F)cc1)[C@H]1CN(C(=O)CCCCN2CCOCC2)C[C@@H]1c1ccc(Cl)c(Cl)c1` (racemic) [Example 84, 1-{(3SR,4RS)-3-(3,4-Dichloro-phenyl)-4-[methyl-(4-trifluoromethyl-benzyl)-amino]-pyrrolidin-1-yl}-5-morpholin-4-yl-pentan-1-one], the inhibition constant (Ki) amounted to 15.5 nM.
To `CNCCCCC(=O)N1C[C@H](c2ccc(Cl)c(Cl)c2)[C@@H](N(C)Cc2ccc(C(F)(F)F)c(F)c2)C1` (racemic) [Example 86, 1-{(3SR,4RS)-3-(3,4-Dichloro-phenyl)-4-[(3-fluoro-4-trifluoromethyl-benzyl)-methyl-amino]pyrrolidin-1-yl}-5-methylamino-pentan-1-one] belongs 97.6 nM; to `CN(C)CCCCC(=O)N1C[C@H](c2ccc(Cl)c(Cl)c2)[C@@H](N(C)Cc2ccc(C(F)(F)F)c(F)c2)C1` (racemic) [Example 87, 1-{(3SR,4RS)-3-(3,4-Dichloro-phenyl)-4-[(3-fluoro-4-trifluoromethyl-benzyl)-methyl-amino]-pyrrolidin-1-yl}-5-dimethylamino-pentan-1-one], 51.2 nM; to `CN(Cc1ccc(C(F)(F)F)c(F)c1)[C@H]1CN(C(=O)CCCCN2CCNCC2)C[C@@H]1c1ccc(Cl)c(Cl)c1` (racemic) [Example 88, 1-{(3SR,4RS)-3-(3,4-Dichloro-phenyl)-4-[(3-fluoro-4-trifluoromethyl-benzyl)-methyl-amino]-pyrrolidin-1-yl}-5-piperazin-1-yl-pentan-1-one], 24.7 nM.
In the case of `CN1CCN(CCCCC(=O)N2C[C@H](c3ccc(Cl)c(Cl)c3)[C@@H](N(C)Cc3ccc(C(F)(F)F)c(F)c3)C2)CC1` (racemic) [Example 89, 1-{(3SR,4RS)-3-(3,4-Dichloro-phenyl)-4-[(3-fluoro-4-trifluoromethyl-benzyl)-methyl-amino]-pyrrolidin-1-yl}-5-(4-methyl-piperazin-1-yl)-pentan-1-one], the Ki came out at 26.9 nM.
Regarding `CN(Cc1ccc(C(F)(F)F)c(F)c1)[C@H]1CN(C(=O)CCCCN2CCN(S(=O)(=O)N(C)C)CC2)C[C@@H]1c1ccc(Cl)c(Cl)c1` (racemic) [Example 90, 4-(5-{(3SR,4RS)-3-(3,4-Dichloro-phenyl)-4-[(3-fluoro-4-trifluoromethyl-benzyl)-methyl-amino]-pyrrolidin-1-yl}-5-oxo-pentyl)-piperazine-1-sulfonic acid dimethylamide], the Ki is 8.6 nM.
For `CN(Cc1ccc(C(F)(F)F)c(F)c1)[C@H]1CN(C(=O)CCCCn2ccnc2)C[C@@H]1c1ccc(Cl)c(Cl)c1` (racemic) [Example 91, 1-{(3SR,4RS)-3-(3,4-Dichloro-phenyl)-4-[(3-fluoro-4-trifluoromethyl-benzyl)-methyl-amino]-pyrrolidin-1-yl}-5-imidazol-1-yl-pentan-1-one], the inhibitory constant (Ki) is 57.2 nM.
As for `CN(Cc1ccc(C(F)(F)F)c(F)c1)[C@H]1CN(C(=O)CCCCN2CCCC2)C[C@@H]1c1ccc(Cl)c(Cl)c1` (racemic) [Example 92, 1-{(3SR,4RS)-3-(3,4-Dichloro-phenyl)-4-[(3-fluoro-4-trifluoromethyl-benzyl)-methyl-amino]-pyrrolidin-1-yl}-5-pyrrolidin-1-yl-pentan-1-one], the inhibitory constant (Ki) amounted to 46.6 nM.
